Assay results as given in PubChem BioAssay (NCI).
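How tested: cells in 96-well plates exposed to compound for 48 hours at five concentrations. Here, GI50 denotes the concentration required for 50% inhibition of growth. Definition used: TGI = concentration required for complete inhibition of growth.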

Legend:
Experiment in all cases: growth of human tumour cells (NCI), 48 h; in the data active = GI50 below about 0.43 µM; inactive = the rest
786-0 renal = tested on: 786-0 renal
A498 renal = tested on: A498 renal
ACHN renal = tested on: ACHN renal
BT-549 breast = tested on: BT-549 breast
CAKI-1 renal = tested on: CAKI-1 renal
CCRF-CEM leukemia = tested on: CCRF-CEM leukemia
COLO 205 colon = tested on: COLO 205 colon
DU-145 prostate = tested on: DU-145 prostate
EKVX NSCLC = tested on: EKVX NSCLC
HCT-116 colon = tested on: HCT-116 colon
HCT-15 colon = tested on: HCT-15 colon
HL-60(TB) leukemia = tested on: HL-60(TB) leukemia
HOP-62 NSCLC = tested on: HOP-62 NSCLC
HS 578T breast = tested on: HS 578T breast
HT29 colon = tested on: HT29 colon
IGROV1 ovarian = tested on: IGROV1 ovarian
K-562 leukemia = tested on: K-562 leukemia
KM12 colon = tested on: KM12 colon
LOX IMVI melanoma = tested on: LOX IMVI melanoma
M14 melanoma = tested on: M14 melanoma
MCF7 breast = tested on: MCF7 breast
MDA-MB-231 breast = tested on: MDA-MB-231 breast
MDA-MB-435 = tested on: MDA-MB-435
MDA-N = tested on: MDA-N
MOLT-4 leukemia = tested on: MOLT-4 leukemia
NCI-H226 lung = tested on: NCI-H226 lung
NCI-H23 lung = tested on: NCI-H23 lung
NCI-H460 lung = tested on: NCI-H460 lung
NCI/ADR-RES ovarian = tested on: NCI/ADR-RES ovarian
OVCAR-3 ovarian = tested on: OVCAR-3 ovarian
OVCAR-5 ovarian = tested on: OVCAR-5 ovarian
OVCAR-8 ovarian = tested on: OVCAR-8 ovarian
PC-3 prostate = tested on: PC-3 prostate
RPMI-8226 leukemia = tested on: RPMI-8226 leukemia
RXF 393 renal = tested on: RXF 393 renal
SF-268 CNS = tested on: SF-268 CNS
SF-295 CNS = tested on: SF-295 CNS
SF-539 CNS = tested on: SF-539 CNS
SK-MEL-2 melanoma = tested on: SK-MEL-2 melanoma
SK-MEL-28 melanoma = tested on: SK-MEL-28 melanoma
SK-OV-3 ovarian = tested on: SK-OV-3 ovarian
SN12C renal = tested on: SN12C renal
SNB-75 CNS = tested on: SNB-75 CNS
SR leukemia = tested on: SR leukemia
SW-620 colon = tested on: SW-620 colon
TK-10 renal = tested on: TK-10 renal
U251 CNS = tested on: U251 CNS
UACC-257 melanoma = tested on: UACC-257 melanoma
UACC-62 melanoma = tested on: UACC-62 melanoma
A549 NSCLC = tested on: A549 NSCLC
HCC-2998 colon = tested on: HCC-2998 colon
HOP-92 NSCLC = tested on: HOP-92 NSCLC
MALME-3M melanoma = tested on: MALME-3M melanoma
NCI-H522 lung = tested on: NCI-H522 lung
OVCAR-4 ovarian = tested on: OVCAR-4 ovarian
SK-MEL-5 melanoma = tested on: SK-MEL-5 melanoma
SNB-19 CNS = tested on: SNB-19 CNS
T-47D breast = tested on: T-47D breast
UO-31 renal = tested on: UO-31 renal

O=C(Cc1ccccc1)c1ccc2[nH]c(=O)oc2c1
62.3 µM: TGI (U251 CNS)
63.2 µM: TGI (NCI-H226 lung)
> 100 µM: TGI (786-0 renal) | TGI (A498 renal) | TGI (ACHN renal) | TGI (BT-549 breast) | TGI (CAKI-1 renal) | TGI (CCRF-CEM leukemia) | TGI (COLO 205 colon) | TGI (DU-145 prostate) | TGI (HCT-116 colon) | TGI (HCT-15 colon) | TGI (HL-60(TB) leukemia) | TGI (HOP-62 NSCLC) | TGI (HT29 colon) | TGI (IGROV1 ovarian) | TGI (K-562 leukemia) | TGI (KM12 colon) | TGI (LOX IMVI melanoma) | TGI (M14 melanoma) | TGI (MCF7 breast) | TGI (MDA-MB-231 breast) | TGI (MDA-MB-435) | TGI (MDA-N) | TGI (MOLT-4 leukemia) | TGI (NCI-H23 lung) | TGI (NCI-H460 lung) | TGI (OVCAR-3 ovarian) | TGI (OVCAR-5 ovarian) | TGI (OVCAR-8 ovarian) | TGI (PC-3 prostate) | TGI (RXF 393 renal) | TGI (SF-268 CNS) | TGI (SF-295 CNS) | TGI (SF-539 CNS) | TGI (SK-MEL-2 melanoma) | TGI (SK-MEL-28 melanoma) | TGI (SK-OV-3 ovarian) | TGI (SN12C renal) | TGI (SR leukemia) | TGI (SW-620 colon) | TGI (TK-10 renal) | TGI (UACC-257 melanoma) | TGI (UACC-62 melanoma)
33.4 µM: TGI (SNB-75 CNS)
64.4 µM: TGI (EKVX NSCLC) | TGI (RPMI-8226 leukemia)
22.9 µM: TGI (HS 578T breast)
79 µM: TGI (NCI/ADR-RES ovarian)

O=C(Nc1ncc(Cc2ccccc2Cl)s1)c1ccc2c(c1)OCCO2
22.6 µM: TGI (SK-OV-3 ovarian)
1.19 µM: TGI (RXF 393 renal)
> 43.3 µM: TGI (UACC-62 melanoma)
> 51.6 µM: TGI (U251 CNS)
> 82.1 µM: TGI (UACC-257 melanoma)
> 48.5 µM: TGI (HT29 colon)
1.81 µM: TGI (SK-MEL-5 melanoma)
> 81.8 µM: TGI (HOP-92 NSCLC)
active: GI50 (A498 renal) 0.151 µM | GI50 (CAKI-1 renal) 0.306 µM | GI50 (CCRF-CEM leukemia) 0.36 µM | GI50 (COLO 205 colon) 0.318 µM | GI50 (DU-145 prostate) 0.384 µM | GI50 (HCT-116 colon) 0.335 µM | GI50 (HCT-15 colon) 0.119 µM | GI50 (HL-60(TB) leukemia) 0.396 µM | GI50 (HS 578T breast) 0.354 µM | GI50 (K-562 leukemia) 0.183 µM | GI50 (KM12 colon) 0.322 µM | GI50 (M14 melanoma) 0.246 µM | GI50 (MCF7 breast) 0.32 µM | GI50 (MDA-MB-231 breast) 0.38 µM | GI50 (MDA-MB-435) 0.0399 µM | GI50 (NCI-H460 lung) 0.352 µM | GI50 (NCI-H522 lung) 0.261 µM | GI50 (NCI/ADR-RES ovarian) 0.322 µM | GI50 (OVCAR-3 ovarian) 0.285 µM | GI50 (PC-3 prostate) 0.417 µM | GI50 (RXF 393 renal) 0.255 µM | GI50 (SF-295 CNS) 0.346 µM | GI50 (SF-539 CNS) 0.258 µM | GI50 (SK-MEL-5 melanoma) 0.334 µM | GI50 (SNB-75 CNS) 0.262 µM | GI50 (SR leukemia) 0.206 µM | GI50 (SW-620 colon) 0.358 µM | GI50 (T-47D breast) 0.333 µM | GI50 (U251 CNS) 0.4 µM
> 69.6 µM: TGI (SK-MEL-2 melanoma)
5.04 µM: TGI (SF-295 CNS)
inactive: GI50 (786-0 renal) 0.574 µM | GI50 (A549 NSCLC) 0.466 µM | GI50 (ACHN renal) 0.776 µM | GI50 (BT-549 breast) 0.567 µM | GI50 (EKVX NSCLC) 0.663 µM | GI50 (HCC-2998 colon) 0.468 µM | GI50 (HOP-62 NSCLC) 0.592 µM | GI50 (HOP-92 NSCLC) 4.08 µM | GI50 (HT29 colon) 0.616 µM | GI50 (IGROV1 ovarian) 0.498 µM | GI50 (LOX IMVI melanoma) 0.583 µM | GI50 (MALME-3M melanoma) 0.68 µM | GI50 (MOLT-4 leukemia) 0.581 µM | GI50 (NCI-H226 lung) 1.17 µM | GI50 (NCI-H23 lung) 0.625 µM | GI50 (OVCAR-4 ovarian) 0.693 µM | GI50 (OVCAR-5 ovarian) 0.747 µM | GI50 (OVCAR-8 ovarian) 0.479 µM | GI50 (RPMI-8226 leukemia) 0.479 µM | GI50 (SF-268 CNS) 1.8 µM | GI50 (SK-MEL-2 melanoma) 0.667 µM | GI50 (SK-MEL-28 melanoma) 1.66 µM | GI50 (SK-OV-3 ovarian) 0.537 µM | GI50 (SN12C renal) 0.614 µM | GI50 (SNB-19 CNS) 0.548 µM | GI50 (TK-10 renal) 0.672 µM | GI50 (UACC-257 melanoma) 6.27 µM | GI50 (UACC-62 melanoma) 0.569 µM | GI50 (UO-31 renal) 1.13 µM
17.5 µM: TGI (DU-145 prostate)
8.76 µM: TGI (MDA-MB-231 breast)
8.45 µM: TGI (NCI-H226 lung)
> 40 µM: TGI (TK-10 renal)
> 65.1 µM: TGI (ACHN renal)
1.07 µM: TGI (OVCAR-3 ovarian)
> 35.6 µM: TGI (KM12 colon)
> 59 µM: TGI (SK-MEL-28 melanoma)
> 68.2 µM: TGI (OVCAR-4 ovarian)
> 55.5 µM: TGI (HCC-2998 colon)
> 100 µM: TGI (786-0 renal) | TGI (A549 NSCLC) | TGI (BT-549 breast) | TGI (CCRF-CEM leukemia) | TGI (EKVX NSCLC) | TGI (HCT-116 colon) | TGI (HCT-15 colon) | TGI (K-562 leukemia) | TGI (LOX IMVI melanoma) | TGI (MCF7 breast) | TGI (MOLT-4 leukemia) | TGI (NCI-H23 lung) | TGI (OVCAR-5 ovarian) | TGI (OVCAR-8 ovarian) | TGI (PC-3 prostate) | TGI (RPMI-8226 leukemia) | TGI (SF-268 CNS) | TGI (SR leukemia) | TGI (SW-620 colon) | TGI (T-47D breast) | TGI (UO-31 renal)
> 82.9 µM: TGI (HOP-62 NSCLC)
> 94 µM: TGI (SN12C renal)
3.55 µM: TGI (COLO 205 colon)
0.741 µM: TGI (SF-539 CNS)
> 45.5 µM: TGI (SNB-19 CNS)
22.2 µM: TGI (NCI/ADR-RES ovarian)
14.5 µM: TGI (M14 melanoma)
0.22 µM: TGI (MDA-MB-435)
0.693 µM: TGI (A498 renal)
6.55 µM: TGI (SNB-75 CNS)
> 57.8 µM: TGI (IGROV1 ovarian)
> 47.9 µM: TGI (CAKI-1 renal)
35.5 µM: TGI (HS 578T breast)
> 44.1 µM: TGI (NCI-H460 lung)
> 47.1 µM: TGI (MALME-3M melanoma)
